Results as given in US20200369728A1, “PEPTIDOMIMETIC MACROCYCLES AND USES THEREOF” (Aileron Therapeutics, Inc., priority 2015, published 2020).
Bridge positions count the residues as written; N and C are the ends. Square brackets hold non-standard residues; d marks the D form. Peptide text beside a SMILES is read from it. R8 = C=CCCCCCC[C@@](C)(N)C(=O)O; Cba = N[C@@H](CC1CCC1)C(=O)O; S5 = C=CCCC[C@](C)(N)C(=O)O; Nle = CCCC[C@H](N)C(=O)O; Ac3c = NC1(C(=O)O)CC1; Aib = CC(C)(N)C(=O)O

Experiments:
[1] = system: SJSA-1 cells; test: Cell lysis by peptidomimetic macrocycles (LDH release); format: cell-based; settings: SJSA-1, 1 h
Experimental: SJSA-1 cells were plated out one day in advance in clear flat-bottom plates (Costar, catalog number 353072) at 7500 cells/well with 100 ul/well of growth media, leaving row H columns 10-12 empty for media alone. On the day of the assay, media was exchanged with RPMI 1% FBS media, 90 uL of media per well.
10 mM stock solutions of the peptidomimetic macrocycles were prepared in 100% DMSO. Peptidomimetic macrocycles were then diluted serially in 100% DMSO, and then further diluted 20-fold in sterile water to prepare working stock solutions in 5% DMSO/water of each peptidomimetic macrocycle at concentrations ranging from 500 μM to 62.5 μM.
10 μL of each compound was added to the 90 uL of SJSA-1 cells to yield final concentrations of 50 μM to 6.25 μM in 0.5% DMSO-containing media. The negative control (non-lytic) sample was 0.5% DMSO alone and positive control (lytic) samples include 10 μM Melittin and 1% Triton X-100.
Cell plates were incubated for 1 hour at 37° C. After the 1 hour incubation, the morphology of the cells is examined by microscope and then the plates were centrifuged at 1200 rpm for 5 minutes at room temperature. 40 μL of supernatant for each peptidomimetic macrocycle and control sample is transferred to clear assay plates. LDH release is measured using the LDH cytotoxicity assay kit from Caymen, catalog #1000882.

[2] = system: Caspase 3; test: Caspase 3 detection assay in SJSA1 cells; format: cell-based; settings: SJSA1, 48 h, Caspase 3 activation over DMSO-treated cells

CCCC[C@H](NC(=O)[C@H](C)NC(=O)[C@H](C)NC(=O)[C@]1(C)CCCC=CCCCCCC[C@@](C)(NC(=O)[C@H](Cc2ccccc2)NC(=O)[C@@H](NC(=O)[C@H](CC(C)C)NC(C)=O)[C@@H](C)O)C(=O)N[C@@H](C)C(=O)N[C@@H](Cc2ccc(O)cc2)C(=O)N[C@@H](Cc2c[nH]c3ccccc23)C(=O)N[C@@H](C)C(=O)N[C@@H](C)C(=O)N[C@@H](CC(C)C)C(=O)N1)C(=O)N[C@@H](C(N)=O)C(C)C (single isomer, unassigned) [compound 80]
6.25 μM % Lysed cells (1 h LDH) [1]: 0%
25 μM % Lysed cells (1 h LDH) [1]: 1%
50 μM % Lysed cells (1 h LDH) [1]: 5%
caspase 0.3 μM [2]: 1
caspase 3 μM [2]: 2
caspase 10 μM [2]: 13
caspase 30 μM [2]: 20

CC[C@H](C)[C@H](NC(=O)[C@H](C)NC(=O)[C@H](C)NC(=O)[C@]1(C)CCCC=CCCCCCC[C@@](C)(NC(=O)[C@H](Cc2ccccc2)NC(=O)[C@@H](NC(=O)[C@H](CC(C)C)NC(C)=O)[C@@H](C)O)C(=O)N[C@@H](C)C(=O)N[C@@H](Cc2ccc(O)cc2)C(=O)N[C@@H](Cc2c[nH]c3ccccc23)C(=O)N[C@@H](C)C(=O)N[C@@H](C)C(=O)N[C@@H](CC(C)C)C(=O)N1)C(=O)N[C@H](C)C(N)=O (single isomer, unassigned) [compound 203]
6.25 μM % Lysed cells (1 h LDH) [1]: 0%
25 μM % Lysed cells (1 h LDH) [1]: 2%
50 μM % Lysed cells (1 h LDH) [1]: 2%
caspase 0.3 μM [2]: 1
caspase 3 μM [2]: 3
caspase 10 μM [2]: 12
caspase 30 μM [2]: 10

CC[C@H](C)[C@H](NC(C)=O)C(=O)N[C@H](C(=O)N[C@@H](Cc1ccccc1)C(=O)N[C@]1(C)CCCCCCC=CCCC[C@@](C)(C(=O)N[C@@H](C)C(=O)N[C@@H](C)C(=O)N[C@H](C(=O)N[C@H](C)C(N)=O)[C@@H](C)CC)NC(=O)[C@H](CC(C)C)NC(=O)[C@H](CCC(N)=O)NC(=O)[C@H](C(C)C)NC(=O)[C@H](Cc2c[nH]c3ccccc23)NC(=O)[C@H](Cc2ccc(O)cc2)NC(=O)[C@H](Cc2ccccc2)NC1=O)[C@@H](C)O [compound 177] (Ac-ITF[R8]FYWVQL[S5]AAI[dA]-NH2; staple 4-11)
6.25 μM % Lysed cells (1 h LDH) [1]: −1%
25 μM % Lysed cells (1 h LDH) [1]: 0%
50 μM % Lysed cells (1 h LDH) [1]: 1%
caspase 0.3 μM [2]: 1
caspase 3 μM [2]: 1
caspase 10 μM [2]: 8
caspase 30 μM [2]: 20

CC[C@H](C)[C@H](NC(=O)[C@H](C)NC(=O)[C@H](CO)NC(=O)[C@]1(C)CCCC=CCCCCCC[C@@](C)(NC(=O)[C@H](Cc2ccccc2)NC(=O)[C@@H](NC(=O)[C@H](CC(C)C)NC(C)=O)[C@@H](C)O)C(=O)N[C@@H](C)C(=O)N[C@@H](Cc2ccc(O)cc2)C(=O)N[C@@H](Cc2c[nH]c3ccccc23)C(=O)N[C@@H](C)C(=O)N[C@@H](CCC(N)=O)C(=O)N[C@@H](CC(C)C)C(=O)N1)C(N)=O [compound 8] (Ac-LTF[R8]AYWAQL[S5]SAI-NH2; staple 4-11)
6.25 μM % Lysed cells (1 h LDH) [1]: −1%
25 μM % Lysed cells (1 h LDH) [1]: 1%
50 μM % Lysed cells (1 h LDH) [1]: 1%
caspase 3 μM [2]: 1
caspase 10 μM [2]: 19
caspase 30 μM [2]: 25

CCCC[C@H](NC(=O)[C@H](C)NC(=O)[C@H](CO)NC(=O)[C@]1(C)CCCC=CCCCCCC[C@@](C)(NC(=O)[C@H](Cc2ccccc2)NC(=O)[C@@H](NC(=O)[C@H](CC(C)C)NC(C)=O)[C@@H](C)O)C(=O)N[C@@H](CCC(=O)O)C(=O)N[C@@H](Cc2ccc(O)cc2)C(=O)N[C@@H](Cc2c[nH]c3ccccc23)C(=O)N[C@@H](CO)C(=O)N[C@@H](CCC(N)=O)C(=O)N[C@@H](CC2CCC2)C(=O)N1)C(=O)N[C@@H](C)C(N)=O [compound 245] (Ac-LTF[R8]EYWSQ[Cba][S5]SA[Nle]A-NH2; staple 4-11)
6.25 μM % Lysed cells (1 h LDH) [1]: 1%
25 μM % Lysed cells (1 h LDH) [1]: 11%
50 μM % Lysed cells (1 h LDH) [1]: 56%
caspase 0.3 μM [2]: 1
caspase 3 μM [2]: 3
caspase 10 μM [2]: 9
caspase 30 μM [2]: 16

CC(=O)N[C@@H](CC(C)C)C(=O)N[C@H](C(=O)N[C@@H](Cc1ccccc1)C(=O)N[C@]1(C)CCCCCCC=CCCC[C@@](C)(C(=O)N[C@@H](CO)C(=O)N[C@H](C(=O)N[C@@H](C)C(N)=O)C(C)C)NC(=O)[C@H](CC(C)C)NC(=O)[C@H](CCC(N)=O)NC(=O)[C@H](C)NC(=O)[C@H](Cc2c[nH]c3ccccc23)NC(=O)[C@H](Cc2ccc(O)cc2)NC(=O)[C@H](C(C)C)NC1=O)[C@@H](C)O (single isomer, unassigned) [compound 139]
6.25 μM % Lysed cells (1 h LDH) [1]: −2%
25 μM % Lysed cells (1 h LDH) [1]: −1%
50 μM % Lysed cells (1 h LDH) [1]: −1%
caspase 0.3 μM [2]: 1
caspase 3 μM [2]: 2
caspase 10 μM [2]: 9
caspase 30 μM [2]: 18

CC(=O)N[C@@H](CCC(=O)O)C(=O)N[C@H](C(=O)N[C@@H](Cc1ccccc1)C(=O)N[C@]1(C)CCCCCCC=CCCC[C@@](C)(C(=O)N[C@@H](CO)C(=O)N[C@H](C(=O)N[C@@H](CO)C(N)=O)C(C)C)NC(=O)[C@H](CC(C)C)NC(=O)[C@H](CCC(N)=O)NC(=O)[C@H](C)NC(=O)[C@H](Cc2c[nH]c3ccccc23)NC(=O)[C@H](Cc2ccc(O)cc2)NC(=O)[C@H](C(C)C)NC1=O)[C@@H](C)O [compound 130] (Ac-ETF[R8]VYWAQL[S5]SVS-NH2; staple 4-11)
6.25 μM % Lysed cells (1 h LDH) [1]: 1%
25 μM % Lysed cells (1 h LDH) [1]: 0%
50 μM % Lysed cells (1 h LDH) [1]: −1%
caspase 0.3 μM [2]: 1
caspase 3 μM [2]: 2
caspase 10 μM [2]: 6
caspase 30 μM [2]: 17

CC(=O)N[C@@H](CC(C)C)C(=O)N[C@H](C(=O)N[C@@H](Cc1ccccc1)C(=O)N[C@]1(C)CCCCCCC=CCCC[C@@](C)(C(=O)N[C@@H](CO)C(=O)N[C@@H](C)C(=O)N[C@@H](CO)C(N)=O)NC(=O)[C@H](CC(C)C)NC(=O)[C@H](CCC(N)=O)NC(=O)[C@H](C)NC(=O)[C@H](Cc2c[nH]c3ccccc23)NC(=O)[C@H](Cc2ccc(O)cc2)NC(=O)[C@H](C(C)C)NC1=O)[C@@H](C)O (single isomer, unassigned) [compound 144]
6.25 μM % Lysed cells (1 h LDH) [1]: 1%
25 μM % Lysed cells (1 h LDH) [1]: −1%
50 μM % Lysed cells (1 h LDH) [1]: 2%
caspase 0.3 μM [2]: 1
caspase 3 μM [2]: 4
caspase 10 μM [2]: 10
caspase 30 μM [2]: 16

CC[C@H](C)[C@H](NC(=O)[C@H](C)NC(=O)[C@H](C)NC(=O)[C@]1(C)CCCC=CCCCCCC[C@@](C)(NC(=O)[C@H](Cc2ccccc2)NC(=O)[C@@H](NC(=O)[C@H](CC(C)C)NC(C)=O)[C@@H](C)O)C(=O)N[C@@H](CCC(=O)O)C(=O)N[C@@H](Cc2ccc(O)cc2)C(=O)N[C@@H](Cc2c[nH]c3ccccc23)C(=O)N[C@@H](C)C(=O)N[C@@H](CCC(N)=O)C(=O)N[C@@H](CC(C)C)C(=O)N1)C(=O)N[C@H](C)C(N)=O (single isomer, unassigned) [compound 217]
6.25 μM % Lysed cells (1 h LDH) [1]: 2%
25 μM % Lysed cells (1 h LDH) [1]: 1%
50 μM % Lysed cells (1 h LDH) [1]: 2%

CC(=O)N[C@@H](CC(C)C)C(=O)N[C@H](C(=O)N[C@@H](Cc1ccccc1)C(=O)N[C@]1(C)CCCCCCC=CCCC[C@@](C)(C(=O)N[C@@H](C)C(=O)N[C@H](C(=O)NCC(N)=O)C(C)C)NC(=O)[C@H](CC(C)C)NC(=O)[C@H](CCC(N)=O)NC(=O)[C@H](C)NC(=O)[C@H](Cc2c[nH]c3ccccc23)NC(=O)[C@H](Cc2ccc(O)cc2)NC(=O)[C@H](C)NC1=O)[C@@H](C)O (single isomer, unassigned) [compound 108]
6.25 μM % Lysed cells (1 h LDH) [1]: 0%
25 μM % Lysed cells (1 h LDH) [1]: 0%
50 μM % Lysed cells (1 h LDH) [1]: 1%

CC(=O)N[C@@H](CCC(=O)O)C(=O)N[C@H](C(=O)N[C@@H](Cc1ccccc1)C(=O)N[C@]1(C)CCCCCCC=CCCC[C@@](C)(C(=O)N[C@@H](C)C(=O)N[C@@H](C)C(=O)N[C@@H](C)C(=O)N[C@@H](C)C(=O)N[C@@H](C)C(=O)N[C@H](C)C(N)=O)NC(=O)[C@H](CC(C)C)NC(=O)[C@H](CCC(N)=O)NC(=O)[C@H](C)NC(=O)[C@H](Cc2c[nH]c3ccccc23)NC(=O)[C@H](Cc2ccc(O)cc2)NC(=O)[C@H](CCC(=O)O)NC1=O)[C@@H](C)O (single isomer, unassigned) [compound 340]
6.25 μM % Lysed cells (1 h LDH) [1]: 0%
25 μM % Lysed cells (1 h LDH) [1]: 0%
50 μM % Lysed cells (1 h LDH) [1]: 0%

CC(=O)N[C@@H](Cc1ccccc1)C(=O)N[C@]1(C)CCCCCCC=CCCC[C@@](C)(C(=O)N[C@@H](C)C(=O)N[C@@H](C)C(=O)NC(C)(C)C(N)=O)NC(=O)[C@H](CC(C)C)NC(=O)C2(CC2)NC(=O)[C@H](CCC(=O)O)NC(=O)[C@H](Cc2c[nH]c3ccccc23)NC(=O)[C@H](Cc2ccc(O)cc2)NC(=O)[C@H](C)NC1=O [compound 22] (Ac-F[R8]AYWE[Ac3c]L[S5]AA[Aib]-NH2; staple 2-9)
6.25 μM % Lysed cells (1 h LDH) [1]: 0%
25 μM % Lysed cells (1 h LDH) [1]: 0%
50 μM % Lysed cells (1 h LDH) [1]: 0%
